Assay results reported in PMC5796017, “Enantiomeric Effect of D-Amino Acid Substitution on the Mechanism of Action of α-Helical Membrane-Active Peptides” (International Journal of Molecular Sciences, 2017).
Converted amounts (≈) assume the structure as drawn.

Key:
[1] = tested on: S. aureus ATCC25923; assay: Antimicrobial activity, microtiter dilution MIC; assay type: cell-based, Staphylococcus aureus; details: G+; MH medium, 5 × 10^5 CFU/mL, 37 °C, 24 h, triplicate
Method: (§1) The antimicrobial activity of the peptides was determined by the standard microtiter dilution method and indicated as MIC (minimal inhibitory concentration) as described previously. Briefly, bacteria were cultured in Mueller–Hinton (MH) medium overnight at 37 °C, diluted to a final inoculum of 5 × 10^5 colony-forming units (CFU)/mL with MH and loaded into 96-well microtiter plates (90 μL/well) with serial dilution of peptides (10 μL/well), with a further incubation at 37 °C for 24 h. MIC was expressed as the lowest peptide concentration that inhibited the growth of bacteria. The antimicrobial assays were repeated in triplicate.

[2] = tested on: E. coli ATCC25922; assay: Antimicrobial activity, microtiter dilution MIC; assay type: cell-based, Escherichia coli; details: G−; MH medium, 5 × 10^5 CFU/mL, 37 °C, 24 h, triplicate
Method: as §1

[3] = tested on: HeLa; assay: MTT cell viability assay; assay type: cell-based, human; details: 24 h, mean ± SEM of three independent determinations
Method: (§2) HeLa, MIA PaCa-2, HPAC, and Bxpc-3 cells were maintained in Dulbecco’s modified Eagle medium) with 10% fetal bovine serum, penicillin (100 U/mL), and streptomycin ([…]) in a humid atmosphere at 37 °C with 5% CO2. The effect of the peptides on the survival of HeLa, MIA PaCa-2, HPAC, and Bxpc-3 cells was determined by 3-(4,5-dimethyl-2-thiazolyl)-2,5-diphenyl-2H-tetrazolium bromide (MTT) assay, as described in a previous study. Briefly, cells were seeded in 96-well plates at a density of 5000 per well. After overnight incubation, cells were incubated, in the absence, or presence of various concentrations of peptides for 24 h. Then, the formazan crystals formed by MTT were dissolved with dimethyl sulfoxide (DMSO) and the absorbance was determined at 492 nm with a microplate reader (GF-M3000; Gaomi Caihong Analytical Instruments Co., Shandong, China). The results were expressed as IC50 values, representing the concentration at which cell viability was reduced by 50%. The cytotoxicity assays were repeated in triplicate.

[4] = tested on: BxPC-3; assay: MTT cell viability assay; assay type: cell-based, human; details: BxPC-3, MTT, 24 h; mean ± SEM of three independent determinations
Method: as §2

[5] = tested on: MIA PaCa-2; assay: MTT cell viability assay; assay type: cell-based, human; details: MIA PaCa-2, MTT, 24 h; mean ± SEM of three independent determinations
Method: as §2

[6] = tested on: HPAC; assay: MTT cell viability assay; assay type: cell-based, human; details: 24 h, mean ± SEM of three independent determinations
Method: as §2

[7] = tested on: human red blood (hRBC) cells; assay: Hemolytic activity assay; assay type: cell-based; details: 2% human RBC in PBS, 37 °C, 2 h, absorbance 578 nm, triplicate
Method: The […] of the peptides was measured by a hemolytic activity assay as described previously. Briefly, healthy human RBCs were collected using an anticoagulation tube with EDTAK2 and centrifuged at 1000 rpm for 5 min. The erythrocytes were washed three times, then diluted to a concentration of 2% in phosphate-buffered saline (PBS). The peptides were serially diluted in PBS and 70 μL of the peptide solutions and 2% RBC suspension were added simultaneously to each well of a 96-well plate (round bottom) for a further incubation at 37 °C for 2 h. Then, the plates were centrifuged for 10 min at 3000 rpm and the supernatant (90 μL) was transferred to a 96-well plate (flat bottom). The absorbance of the supernatant was measured on a microplate reader at 578 nm. Erythrocytes in PBS and distilled water were used as the negative (0%) and positive (100%) controls, respectively. The hemolytic activity was calculated as the percentage of experimental group over positive control (100%), after subtraction of negative control (0%). The hemolytic assays were repeated in triplicate.

[8] = tested on: P. aeruginosa ATCC27853; assay: Antimicrobial activity, microtiter dilution MIC; assay type: cell-based, Pseudomonas aeruginosa; details: G−; MH medium, 5 × 10^5 CFU/mL, 37 °C, 24 h, triplicate
Method: as §1

[9] = tested on: E. coli ATCC25922; assay: Outer membrane permeability assay (NPN uptake); assay type: cell-based, Escherichia coli; details: 16 μM peptide, 10 min, excitation 350 nm, emission 420 nm
From the text: To explore the potential role of the helicity of the peptides in damaging cell membranes, we investigated the disruption of the outer membrane of Escherichia coli (E. coli) by quantifying the fluorescence intensity of 1-N-phenylnaphthylamine (NPN), which is a hydrophobic fluorescent probe. The intensity of NPN is weak in a hydrophilic environment. The fluorescence intensity of NPN gradually increases as it is exposed to a more hydrophobic environment due to damage to the bacterial outer membrane by MAPs.
The outer membrane permeability of the peptides against E. coli ATCC25922 was evaluated using the hydrophobic fluorescent probe NPN, as performed previously. In brief, E. coli was cultured in LB medium at 37 °C until the absorbance of the bacterial suspension at 600 nm was 0.4–0.6, the bacterial pellet was collected by centrifugation and resuspended in a reaction buffer (pH 7.4, 5 mM HEPES, 5 mM NaN3, 0.25 mM NPN) until the absorbance at 600 nm was 0.5. Then, an aliquot of the peptide sample and the bacterial suspension were co-incubated to give a final peptide concentration of 16 μM. The same volume of reaction buffer was used as the negative control. A Shimadzu RF-5301 PC fluorescent spectrometer (excitation wavelength of 350 nm, emission wavelength of 420 nm) was used to collect data continuously for 10 min.

[10] = Circular dichroism (CD) secondary structure; assay type: physicochemical
From the text: The influence of the amino acid substitutions on the peptide secondary structure were investigated using circular dichroism (CD) spectroscopy under benign conditions (KP buffer) and under conditions designed to mimic the hydrophobic environment of the membrane (KP buffer with 50% TFE). D-amino acid substitutions reduced the helicity of the peptide analogs relative to that of peptide V13K, in both KP buffer and KP buffer with 50% TFE. […] As shown in Table 2 and Figure S1, the values of the relative helicity of peptides with polar face substitutions are in the order of K14D (76.99%) > S11D/K14D (51.33%) > S11D/K14D/T15D (38.67%). Similarly, the relative helicity of the peptides with substitutions on the non-polar face follows the same trend: A12D (70.83%) > F9D/A12D (38.26%) > F9D/A12D/V16D (36.41%). Since the values of the relative helicity of the peptides with D-amino acid substitutions on the non-polar face were less than those peptide analogs with the same number of D-amino acid substitutions on the polar face, it is clear that the amino acid residues on the non-polar face may be more important for stabilizing the α-helical structure than residues on the polar face.
The secondary structures of the peptides were examined using a Jasco J-810 CD spectrometer (Jasco, Easton, MD, USA) at 25 °C as described previously. […] The mean residue molar ellipticities were calculated according to the equation [θ] = θ/10lCMn, in which, θ represents the ellipticity in millidegrees, l is the optical path length of the cuvette in centimeters, CM is the peptide concentration in mol/L, and n is the number of residues in the peptide. The mean residue molar ellipticities at 222 nm, [θ]222 (degree·cm^2·dmol^−1), were used to calculate the relative helical content of the peptides.

[11] = tested on: S. epidermidis ATCC12228; assay: Antimicrobial activity, microtiter dilution MIC; assay type: cell-based, Staphylococcus epidermidis; details: G+; MH medium, 5 × 10^5 CFU/mL, 37 °C, 24 h, triplicate
Method: as §1

[12] = RP-HPLC retention time as relative hydrophobicity; assay type: physicochemical; details: 25 °C, used by the paper as measure of relative hydrophobicity
Method: The RP-HPLC retention time has been widely used to represent the relative hydrophobicity of peptides in many studies.The relative hydrophobicity of the peptides was determined by the RP-HPLC retention times at 25 °C. The change in hydrophobicity of the peptides caused by D-amino acid substitutions was mainly due to the disruption of the helical structure.

CC[C@H](C)[C@H](NC(=O)[C@H](C)NC(=O)[C@H](CCCCN)NC(=O)[C@H](CC(C)C)NC(=O)[C@H](C)NC(=O)[C@@H](NC(=O)[C@H](Cc1c[nH]cn1)NC(=O)[C@H](CC(C)C)NC(=O)[C@@H](NC(=O)[C@@H](NC(=O)[C@@H](CCCCN)NC(=O)[C@H](CCCCN)NC(=O)[C@H](C)NC(=O)[C@H](CO)NC(=O)[C@H](CCCCN)NC(=O)[C@H](Cc1ccccc1)NC(=O)[C@@H](NC(=O)[C@H](CCCCN)NC(=O)[C@H](CC(C)C)NC(=O)[C@H](Cc1ccccc1)NC(=O)[C@H](CO)NC(=O)[C@H](CCCCN)NC(=O)[C@H](Cc1c[nH]c2ccccc12)NC(=O)[C@H](CCCCN)NC(C)=O)[C@@H](C)O)[C@@H](C)O)C(C)C)[C@@H](C)O)C(=O)N[C@@H](CO)C(=O)N[C@@H](CO)C(N)=O [Peptide K14D]
MIC [1]: 32 µM (≈ 95.7 µg/mL) | MIC [2]: 32 µM (≈ 95.7 µg/mL) | IC50 [3]: 15.6 ± 4.1 µM | IC50 [4]: 20 ± 0.8 µM | IC50 [5]: 17.9 ± 2.3 µM | IC50 [6]: 7.2 ± 5.2 µM | MHC (minimal hemolytic concentration) [7]: 125 µM | MIC [8]: 16 µM (≈ 47.9 µg/mL) | Outer membrane permeabilization, NPN fluorescence intensity [9]: enhanced | [θ]222, benign ([10]; CD, KP buffer (100 mM KCl, 50 mM KH2PO4/K2HPO4, pH 7.4), 75 μM peptide, 25 °C): −2223.13 degree·cm^2·dmol^−1 | [θ]222, 50% TFE ([10]; CD, KP buffer with 50% TFE, 75 μM peptide, 25 °C): −38,897.2 degree·cm^2·dmol^−1 | α-Helix (%), 50% TFE (relative helicity) ([10]; KP buffer with 50% TFE, relative to molar ellipticity of V13K in 50% TFE): 76.99% | α-Helix (%), benign ([10]; KP buffer, relative to molar ellipticity of V13K in 50% TFE): 4.4% | MIC [11]: 16 µM (≈ 47.9 µg/mL) | tR (RP-HPLC retention time), relative hydrophobicity [12]: 41.93 min
